In paper PMC9287416, “Externalized phosphatidylinositides on apoptotic cells are eat-me signals recognized by CD14” (Cell Death and Differentiation, 2022) one finds Kd data, which are given here for two molecules.

The target in the test is T1, CD14 (Homo sapiens, UniProt P08571).
T1 construct: full-length human CD14 expressed in HEK293T cells, recombinant; His-tagged protein used in flow cytometry
T1 sequence (P08571 20-345): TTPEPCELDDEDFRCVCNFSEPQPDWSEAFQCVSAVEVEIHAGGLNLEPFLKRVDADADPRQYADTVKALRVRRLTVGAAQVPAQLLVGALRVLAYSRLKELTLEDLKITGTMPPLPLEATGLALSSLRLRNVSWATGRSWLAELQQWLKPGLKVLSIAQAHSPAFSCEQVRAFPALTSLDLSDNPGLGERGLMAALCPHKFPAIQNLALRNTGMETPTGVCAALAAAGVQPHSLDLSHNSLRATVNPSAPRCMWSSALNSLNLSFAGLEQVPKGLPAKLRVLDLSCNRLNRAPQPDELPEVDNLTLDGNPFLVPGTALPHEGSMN
The test can be described thus: isothermal titration calorimetry. Format: binding.

Where two headings read alike, the source gives them in different places.

By Kd is commonly meant the equilibrium constant for the complex coming apart. Higher therefore signals lower affinity. As for `O=P(O)(O)O[C@H]1[C@H](OP(=O)(O)O)[C@@H](OP(=O)(O)O)[C@H](OP(=O)(O)O)[C@@H](OP(=O)(O)O)[C@H]1OP(=O)(O)O` [IP6], the Kd worked out at 6.2 ± 1.2 µM. Regarding PI(3,4,5)P3, for the setting “PI(3,4,5)P3 in liposomes”, the dissociation constant (Kd) was 5.6 ± 0.6 µM.
